Laboratory results published in patent publication US20230117034A1, “PYRAZOLOTRIAZINES” (Bayer Aktiengesellschaft, priority 2019, published 2023).

What was measured:
[1] = molecular target: T1, CDK12 (nuclear staining in CAL-120 cells) (Homo sapiens, UniProt Q9NYV4); assay: CDK12 nuclear protein level: immunofluorescence/high content analysis (CAL-120); format: cell-based; conditions: for DC50: CAL-120 cells, 24 h, immunofluorescence, 50% reduction of nuclear CDK12 staining intensity, median, read-out: CDK12 degradation IF, DC50- [mol/l] (median); for (IC50 CDK12 high ATP) to (Degradation DC50 CDK12) ratio: ratio of IC50 CDK12 high ATP kinase assay to DC50 CDK12 degradation (IF, CAL-120)
T1 construct: endogenous in cells; host or cells: CAL-120 human breast cancer cells (DSMZ ACC 459)
How it was run: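 DC50 is the degrader concentration that halves nuclear CDK12 immunofluorescence relative to controls, measured by high-content imaging. CAL-120 cells were exposed to compound for 24 h at 37 °C before PFA fixation, and signal was normalized to DMSO and control wells.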

[2] = test system: CAL-120, human breast adenocarcinoma cells; assay: Proliferation assay CAL-120 (crystal violet, 4 days); format: cell-based; conditions: Homo sapiens, CAL-120, 96 h, CAL-120 cells, median, read-out: Prolif-CAL-120, IC50-[mol/l] (median)
How it was run: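 IC50 from a 4-parameter fit of crystal violet absorbance (595 nm), scaled between the day-of-dosing plate (0%) and vehicle cells (100%). MDA-MB-231 or CAL-120 cells were treated for 4 days with 0.01–10 micromol/L compound in 0.1% DMSO after 24 h attachment.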

CDK9/CycT1 = molecular target: T2, CDK9/CycT1 (Homo sapiens, UniProt P50750); assay: CDK9/CycT1 high ATP kinase assay (TR-FRET, 2 mM ATP); format: biochemical; conditions: 2 mM ATP (high ATP); median; read-out: CDK9/CyclinT1, 2 mM ATP (high ATP), IC50 (median)
T2 construct: Recombinant full-length His-tagged human CDK9 and CycT1; purchased Life Technologies PV4131; host or cells: insect cells
How it was run: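 Full-length His-tagged human CDK9/CycT1 (insect cell, ~0.5 μg/mL) preincubated 15 min at 22 °C with compound in Tris pH 8.0, MgCl2, DTT buffer before reaction with biotinylated peptide substrate at high ATP (2 mM).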

T2 sequence (P50750 whole entry): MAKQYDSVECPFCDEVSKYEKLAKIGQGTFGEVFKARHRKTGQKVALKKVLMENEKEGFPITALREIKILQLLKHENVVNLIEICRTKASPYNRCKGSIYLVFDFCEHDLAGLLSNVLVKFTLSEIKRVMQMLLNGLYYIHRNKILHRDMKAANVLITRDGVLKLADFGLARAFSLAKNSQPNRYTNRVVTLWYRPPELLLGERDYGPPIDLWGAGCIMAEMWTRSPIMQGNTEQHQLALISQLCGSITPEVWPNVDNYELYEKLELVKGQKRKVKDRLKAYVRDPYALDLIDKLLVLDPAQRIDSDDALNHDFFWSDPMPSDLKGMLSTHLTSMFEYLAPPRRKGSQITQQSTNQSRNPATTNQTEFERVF
T2 sequence (O60563 whole entry partner): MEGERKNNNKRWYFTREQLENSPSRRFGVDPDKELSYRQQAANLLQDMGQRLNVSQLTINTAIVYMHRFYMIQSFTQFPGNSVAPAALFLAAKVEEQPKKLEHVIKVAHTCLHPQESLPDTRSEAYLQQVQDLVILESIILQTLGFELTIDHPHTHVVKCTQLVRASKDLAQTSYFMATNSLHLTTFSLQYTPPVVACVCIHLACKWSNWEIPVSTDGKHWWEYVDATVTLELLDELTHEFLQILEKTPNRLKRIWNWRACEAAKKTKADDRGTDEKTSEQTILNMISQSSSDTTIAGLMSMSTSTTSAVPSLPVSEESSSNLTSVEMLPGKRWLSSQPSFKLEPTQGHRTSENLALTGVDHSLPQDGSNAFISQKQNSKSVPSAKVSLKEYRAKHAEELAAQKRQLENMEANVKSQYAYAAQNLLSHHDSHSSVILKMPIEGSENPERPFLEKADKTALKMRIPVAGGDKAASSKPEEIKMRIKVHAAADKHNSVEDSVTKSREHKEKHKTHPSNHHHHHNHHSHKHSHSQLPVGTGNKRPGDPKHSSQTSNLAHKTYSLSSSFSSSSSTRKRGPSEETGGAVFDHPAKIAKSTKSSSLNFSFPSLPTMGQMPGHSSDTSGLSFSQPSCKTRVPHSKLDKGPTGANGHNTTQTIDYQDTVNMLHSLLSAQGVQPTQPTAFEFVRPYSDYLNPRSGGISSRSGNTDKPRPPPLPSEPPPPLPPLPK
T1 sequence (Q9NYV4 whole entry): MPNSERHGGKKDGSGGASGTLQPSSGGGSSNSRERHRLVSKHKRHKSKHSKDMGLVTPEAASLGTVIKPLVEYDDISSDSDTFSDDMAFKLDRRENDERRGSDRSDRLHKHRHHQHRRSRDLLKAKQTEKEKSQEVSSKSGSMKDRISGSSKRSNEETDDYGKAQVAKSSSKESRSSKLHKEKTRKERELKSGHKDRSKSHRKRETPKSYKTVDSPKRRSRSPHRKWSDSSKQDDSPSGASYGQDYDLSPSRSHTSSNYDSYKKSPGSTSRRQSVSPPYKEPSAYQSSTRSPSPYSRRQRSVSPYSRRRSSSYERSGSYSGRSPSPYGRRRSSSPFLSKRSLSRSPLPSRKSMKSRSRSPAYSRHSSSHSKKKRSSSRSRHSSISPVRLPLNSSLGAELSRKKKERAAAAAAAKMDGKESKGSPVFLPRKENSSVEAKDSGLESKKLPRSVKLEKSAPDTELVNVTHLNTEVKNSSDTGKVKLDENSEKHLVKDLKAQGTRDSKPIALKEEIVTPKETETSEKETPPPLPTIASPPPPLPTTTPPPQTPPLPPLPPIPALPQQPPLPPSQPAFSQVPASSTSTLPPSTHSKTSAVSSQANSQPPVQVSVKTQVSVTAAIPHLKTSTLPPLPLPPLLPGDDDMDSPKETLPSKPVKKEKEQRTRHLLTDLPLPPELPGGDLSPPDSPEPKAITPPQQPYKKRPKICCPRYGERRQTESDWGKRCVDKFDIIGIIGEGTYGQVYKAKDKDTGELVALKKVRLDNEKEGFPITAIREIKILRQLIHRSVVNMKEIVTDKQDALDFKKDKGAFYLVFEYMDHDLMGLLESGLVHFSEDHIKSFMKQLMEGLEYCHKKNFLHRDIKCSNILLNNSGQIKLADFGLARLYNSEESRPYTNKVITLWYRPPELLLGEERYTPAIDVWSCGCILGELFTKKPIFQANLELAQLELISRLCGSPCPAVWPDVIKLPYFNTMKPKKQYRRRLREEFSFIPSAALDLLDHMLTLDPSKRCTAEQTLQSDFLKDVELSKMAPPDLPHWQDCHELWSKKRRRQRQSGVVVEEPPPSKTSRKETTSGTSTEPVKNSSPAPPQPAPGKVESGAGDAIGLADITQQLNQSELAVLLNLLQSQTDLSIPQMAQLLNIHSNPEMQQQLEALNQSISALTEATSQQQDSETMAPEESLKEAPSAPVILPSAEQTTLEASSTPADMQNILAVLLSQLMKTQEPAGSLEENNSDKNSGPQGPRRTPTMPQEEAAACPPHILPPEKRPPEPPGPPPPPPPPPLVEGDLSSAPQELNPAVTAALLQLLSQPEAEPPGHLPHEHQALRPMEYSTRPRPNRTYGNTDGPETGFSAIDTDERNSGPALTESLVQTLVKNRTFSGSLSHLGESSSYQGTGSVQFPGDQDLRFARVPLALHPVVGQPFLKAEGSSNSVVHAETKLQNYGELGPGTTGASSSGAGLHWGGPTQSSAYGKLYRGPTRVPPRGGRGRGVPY
T1 sequence (O75909 whole entry partner): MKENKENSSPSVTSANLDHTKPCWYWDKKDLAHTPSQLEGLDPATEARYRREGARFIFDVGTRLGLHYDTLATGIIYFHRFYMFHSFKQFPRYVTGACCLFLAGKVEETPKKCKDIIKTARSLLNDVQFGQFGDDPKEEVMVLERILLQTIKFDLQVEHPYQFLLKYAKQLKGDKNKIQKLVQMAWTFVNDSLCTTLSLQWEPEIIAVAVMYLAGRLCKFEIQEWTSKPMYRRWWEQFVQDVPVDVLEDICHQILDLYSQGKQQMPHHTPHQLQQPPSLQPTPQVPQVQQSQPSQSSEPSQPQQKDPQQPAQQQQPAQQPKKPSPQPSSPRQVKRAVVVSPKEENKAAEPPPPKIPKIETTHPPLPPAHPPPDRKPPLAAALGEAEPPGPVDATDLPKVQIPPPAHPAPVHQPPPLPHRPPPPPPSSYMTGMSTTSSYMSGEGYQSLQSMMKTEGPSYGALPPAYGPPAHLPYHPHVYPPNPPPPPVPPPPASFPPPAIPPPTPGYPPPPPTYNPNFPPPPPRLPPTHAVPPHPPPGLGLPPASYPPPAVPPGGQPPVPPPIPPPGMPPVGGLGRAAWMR

SMILES	DC50 [1]	(IC50 CDK12 high ATP) to (Degradation DC50 CDK12) ratio [1]	IC50 [2]	IC50 (CDK9/CycT1)
FC(F)(F)c1ccc2[nH]c(CNc3nc(N4CC5CCC(C4)N5)nc4c(C5CC5)cnn34)nc2c1 [Example 327, 8-cyclopropyl-2-(3,8-diazabicyclo[3.2.1]octan-3-yl)-N-{[5-(trifluoromethyl)-1H-benzimidazol-2-yl]methyl}pyrazolo[1,5-a][1,3,5]triazin-4-amine]	10 nM	235	2.28 nM	> 20000 nM
Fc1cc2nc(CNc3nc(N4C[C@H]5CC[C@@H](C4)N5)nc4c(C5CC5)cnn34)[nH]c2cc1Cl [Example 328, N-[(6-chloro-5-fluoro-1H-benzimidazol-2-yl)methyl]-8-cyclopropyl-2-[(1R,5S)-3,8-diazabicyclo[3.2.1]octan-3-yl]pyrazolo[1,5-a][1,3,5]triazin-4-amine]	3.95 nM	419	0.901 nM	15000 nM
Fc1c(Cl)ccc2[nH]c(CNc3nc(N4CCOCC4)nc4c(C5CC5)cnn34)nc12 [Example 370, N-[(5-chloro-4-fluoro-1H-benzimidazol-2-yl)methyl]-8-cyclopropyl-2-(morpholin-4-yl)pyrazolo[1,5-a][1,3,5]triazin-4-amine]	2.19 nM	77	3.59 nM	> 20000 nM
FC(F)(F)c1ccc2[nH]c(CNc3nc(N4CC5CCC(C4)N5)nc4c(Br)cnn34)nc2c1 [Example 354, 8-bromo-2-(3,8-diazabicyclo[3.2.1]octan-3-yl)-N-{[5-(trifluoromethyl)-1H-benzimidazol-2-yl]methyl}pyrazolo[1,5-a][1,3,5]triazin-4-amine]	71.3 nM	52	2.8 nM	> 20000 nM
Cc1[nH]c(CNc2nc(N3CCOCC3)nc3c(Br)cnn23)nc1-c1ccccc1 [Example 27, 8-bromo-N-[(5-methyl-4-phenyl-1H-imidazol-2-yl)methyl]-2-(morpholin-4-yl)pyrazolo[1,5-a][1,3,5]triazin-4-amine]	128 nM	27	–	14700 nM
Cc1ccnc2[nH]c(CNc3nc(N4CCOCC4)nc4c(C(C)C)cnn34)nc12 [Example 28, N-[(7-methyl-3H-imidazo[4,5-b]pyridin-2-yl)methyl]-2-(morpholin-4-yl)-8-(propan-2-yl)pyrazolo[1,5-a][1,3,5]triazin-4-amine]	6.5 nM	511	39.1 nM	> 20000 nM
Cc1ccnc2[nH]c(CNc3nc(N4CCN(C)CC4)nc4c(C(C)C)cnn34)nc12 [Example 32, N-[(7-methyl-3H-imidazo[4,5-b]pyridin-2-yl)methyl]-2-(4-methylpiperazin-1-yl)-8-(propan-2-yl)pyrazolo[1,5-a][1,3,5]triazin-4-amine]	7.21 nM	2565	–	> 20000 nM
Fc1ccc2[nH]c(CNc3nc(N4CC5CCC(C4)N5)nc4c(Cl)cnn34)nc2c1F.O=CO [Example 360, formic acid 8-chloro-2-(3,8-diazabicyclo[3.2.1]octan-3-yl)-N-[(4,5-difluoro-1H-benzimidazol-2-yl)methyl]pyrazolo[1,5-a][1,3,5]triazin-4-amine]	6.45 nM	622	2.24 nM	–
Fc1cc2nc(CNc3nc(N4CCOCC4)nc4c(Br)cnn34)[nH]c2cc1Cl [Example 336, 8-bromo-N-[(6-chloro-5-fluoro-1H-benzimidazol-2-yl)methyl]-2-(morpholin-4-yl)pyrazolo[1,5-a][1,3,5]triazin-4-amine]	3.08 nM	256	3.21 nM	–

Now from value to compound:

DC50 [1]	(IC50 CDK12 high ATP) to (Degradation DC50 CDK12) ratio [1]	IC50 [2]	IC50 (CDK9/CycT1)	SMILES
3.06 nM	780	2.87 nM	> 20000 nM	CN(CC(C)(C)O)c1nc(NCc2nc3cc(F)c(F)cc3[nH]2)n2ncc(C3CC3)c2n1 [Example 319, 1-[(8-cyclopropyl-4-{[(5,6-difluoro-1H-benzimidazol-2-yl)methyl]amino}pyrazolo[1,5-a][1,3,5]triazin-2-yl)(methyl)amino]-2-methylpropan-2-ol]
2.31 nM	61	3.1 nM	> 20000 nM	Fc1cc2nc(CNc3nc(N4CCOCC4)nc4c(C(F)(F)F)cnn34)[nH]c2cc1F [Example 333, N-[(5,6-difluoro-1H-benzimidazol-2-yl)methyl]-2-(morpholin-4-yl)-8-(trifluoromethyl)pyrazolo[1,5-a][1,3,5]triazin-4-amine]
9.39 nM	516	94.9 nM	> 20000 nM	CC[C@H](CO)Nc1nc(NCc2nc3ccccc3[nH]2)n2ncc(Br)c2n1 [Example 368, (2R)-2-[(4-{[(1H-benzimidazol-2-yl)methyl]amino}-8-bromopyrazolo[1,5-a][1,3,5]triazin-2-yl)amino]butan-1-ol]
12.4 nM	>1615	36.8 nM	> 20000 nM	CN1CCN(c2nc(NCc3nc4c(OC(F)(F)F)cccc4[nH]3)n3ncc(Br)c3n2)CC1 [Example 376, 8-bromo-2-(4-methylpiperazin-1-yl)-N-{[4-(trifluoromethoxy)-1H-benzimidazol-2-yl]methyl}pyrazolo[1,5-a][1,3,5]triazin-4-amine]
7.8 nM	79	3.36 nM	12600 nM	Cc1cc2nc(CNc3nc(N4CCOCC4)nc4c(Br)cnn34)[nH]c2cc1C [Example 340, 8-bromo-N-[(5,6-dimethyl-1H-benzimidazol-2-yl)methyl]-2-(morpholin-4-yl)pyrazolo[1,5-a][1,3,5]triazin-4-amine]
23.6 nM	247	70.2 nM	> 20000 nM	CN(c1nc(NCc2nc3ccccc3[nH]2)n2ncc(Br)c2n1)[C@H]1C[C@H](O)C1 [Example 365, trans-3-[(4-{[(1H-benzimidazol-2-yl)methyl]amino}-8-bromopyrazolo[1,5-a][1,3,5]triazin-2-yl)(methyl)amino]cyclobutan-1-ol]
3.81 nM	1751	–	> 20000 nM	CN(c1nc(NCc2nc3ccccc3[nH]2)n2ncc(Br)c2n1)[C@H]1C[C@@H](O)C1 [Example 364, cis-3-[(4-{[(1H-benzimidazol-2-yl)methyl]amino}-8-bromopyrazolo[1,5-a][1,3,5]triazin-2-yl)(methyl)amino]cyclobutan-1-ol]
58.4 nM	55	–	8740 nM	CCNc1nc(NCc2nc(-c3ccc(C)cc3)c[nH]2)n2ncc(Br)c2n1 [Example 26, 8-bromo-N^2-ethyl-N^4-{[4-(4-methylphenyl)-1H-imidazol-2-yl]methyl}pyrazolo[1,5-a][1,3,5]triazine-2,4-diamine]
25.7 nM	115	–	> 20000 nM	CC(C)c1cnn2c(NCc3ncc(-c4ccccc4)[nH]3)nc(N3CCOCC3)nc12 [Example 30, 2-(morpholin-4-yl)-N-[(5-phenyl-1H-imidazol-2-yl)methyl]-8-(propan-2-yl)pyrazolo[1,5-a][1,3,5]triazin-4-amine]
